Columns and labels:
C9orf72 V2 transcripts = experiment: RT-qPCR analysis of C9V2 mRNA levels in human RPE1 cells after drug treatment; type: cell-based; details: 24 h; for levels of C9orf72 V2 transcripts: vs DMSO, FIG. 13J; for C9V2 mRNA, as measured by RT-qPCR: increasing concentrations of TM or TG, FIG. 13G
Method: (§1) Cell culture, drug treatment, lentiviral shRNA knockdown, and live-cell imaging—HEK293 cells and mouse embryonic fibroblast (MEF) cells were cultured in DMEM containing 10% FBS. Human retinal pigment epithelial 1 (RPE1) cells were cultured in DMEM/F12 containing 10% FBS and 0.01 mg/ml hygromycin B. Human B lymphocytes were cultured in RPMI 1640 medium containing 15% FBS. Human iPSCs were obtained from the NINDS Human Cell and Data Repository and maintained in StemFlex medium (Gibco, A3349401), with medium exchange every other day. All cell lines were checked regularly for mycoplasma contamination. To induce cell stress, RPE1 cells were treated with thapsigargin (30 nM) or tunicamycin (5 μg/ml) for 24 h, and B lymphocytes were treated with thapsigargin (40 nM) or tunicamycin (1 μg/ml) for 24 h. To express PR82, RPE1 cells were transfected with the pLenti-PR82 plasmid and cultured for 48 h.
(§2) Quantitative PCR— Total RNAs were extracted with an RNeasy Plus mini kit (Qiagen, 74136), and cDNAs were synthesized using QuantiTect reverse transcription reagents (Qiagen, 205313). qPCR reactions were carried out on a Bio-Rad thermal cycler using PowerUp SYBR Green Master Mix (ThermoFisher Scientific). The primer sets for C9orf72 transcripts V1, V2, and V3 were described previously (Gendron et al., 2017, incorporated herein by reference). The expression of C9orf72 pre-mRNA was measured with a pair of primers targeted to the junction region between exon 2 and intron 3 (SEQ ID NO: 11 and 12). The mRNA expression levels were analyzed by the ΔΔCt method and normalized against housekeeping genes. In the promoter analysis, the EGFP transcription level was normalized to the GAPDH transcript and the plasmid-encoded ampicillin resistance (AmpR) transcript to exclude any bias induced by differential transfection efficiency.

C9HRE iMNs = experiment: Neuronal survival of C9HRE iMNs under tunicamycin stress, calcein-AM staining; type: cell-based, human
Method: (§3) Motor neuron differentiation of human iPS cells and experimental analyses—The differentiation of iPSCs into motor neurons was performed as previously described (Liu et al., 2018). In brief, iPSCs were seeded onto Matrigel-coated plates and differentiated into neuroepithelial progenitor cells (NEPCs) by culturing 6 days in neural medium (1:1 DMEM/F12:neurobasal medium. GlutaMax, N2 supplement, B27 supplement, and ascorbic acid) containing 3 μM […], 2 μM SB431542, and 2 μM DMH-1. NEPCs were dissociated with dispase (1 U/ml) and split into new plates coated with Matrigel at a ratio of about 1:6. NEPCs were differentiated into motor neuron progenitor cells (MNPCs) using neural medium supplemented with 1 μM CHIR99021, 2 μM SB431542, 2 μM DMH-1, 0.1 μM retinoic acid (RA), and 0.5 μM purmorphamine. After culturing for 6 days, MNPCS were dissociated and cultured in suspension using neural medium containing 0.5 μM RA and 0.1 μM purmorphamine. Six days later, neural spheres were dissociated and plated onto a Matrigel-coated plate. Adherent neural spheres were cultured in neural medium supplemented with 0.5 μM RA, 0.1 μM purmorphamine, and 0.1 μM compound E. After 12 days, mature motor neurons were provided for experiments. The medium was changed every other day during the entire differentiation period.
For knockdown experiments on motor neurons, iMNs were infected twice with the shRNA-expressing lentiviruses, on day 10 and day 12 at the final differentiation stage, and the cells were used on day 15 to allow for efficient DAXX knockdown. Mature iMNs were stressed with tunicamycin (5 μg/ml) in the presence of Na-Phen (10 μM) or 5-aza-2 ([…]) for the indicated times, and neuronal survival at each time point was measured by calcein-AM staining. In brief, iMNs were stained with 3 μM calcein-AM (Invitrogen, C1430), and the fluorescence of surviving iMNs was read using a plate reader (Synergy H1 Hybrid) with excitation/emission at 485 nm/535 nm. Optical fields with calcein-positive iMNs were randomly selected and images captured using a fluorescence microscope (Nikon Eclipse TS100).

[1] = system: mutant SOD1 mouse model of ALS; details: Ryu et al., 2005; cited from earlier work
C9V2 mRNA = experiment: RT-qPCR analysis of C9V2 mRNA in HEK293 cells after stressor treatment; type: cell-based, human; details: increasing concentrations of TM or TG, 24 h, FIG. 13F
Method: as §1, with “To express PR82, RPE1 cells were transfected with the pLenti-PR82 plasmid and cultured for 48 h.” left out
(§4) Quantitative PCR— Total RNAs were extracted with an RNeasy Plus mini kit (Qiagen, 74136), and cDNAs were synthesized using QuantiTect reverse transcription reagents (Qiagen, 205313). qPCR reactions were carried out on a Bio-Rad thermal cycler using PowerUp SYBR Green Master Mix (ThermoFisher Scientific). […] The expression of C9orf72 pre-mRNA was measured with a pair of primers targeted to the junction region between exon 2 and intron 3 (SEQ ID NO: 11 and 12). The mRNA expression levels were analyzed by the ΔΔCt method and normalized against housekeeping genes. […]

C9orf72 protein and mRNA = experiment: Stress-induced C9orf72 expression in control and C9HRE B lymphocytes (immunoblotting, RT-qPCR); type: cell-based, human; details: tunicamycin 1 μg/ml or thapsigargin 40 nM, 24 h; for dynamic regulation of C9orf72 expression: B lymphocytes from C9HRE patients; for stress-responsive induction of C9orf72 expression at both the protein and mRNA levels: normal B lymphocytes
Method: as §1, §2
Immunoblotting—Cultured cells were washed twice with PBS and lysed in cold RIPA buffer containing 50 mM Tris (pH 7.5), 0.5% SDS, 150 mM NaCl, 0.5% NP40, 20 mM EDTA, 1 mM PMSF, and Protease Inhibitor Cocktail (1:200, Millipore Sigma, P8340).
(§5) Protein concentrations were measured by the bicinchoninic acid assay (ThermoFisher, 23225). […] Western blot images were captured by an Odyssey scanner (LI-COR) and analyzed with Image Studio (version 5.2.5). […]

C9orf72 V2 promoter = experiment: ChIP-qPCR of H3K9me3 and H3K27ac at the C9orf72 V2 promoter in human RPE1 cells; type: cell-based; details: 24 h, vs DMSO, FIG. 13I
Method: as §1
Chromatin immunoprecipitation qPCR—ChIP-qPCR analysis of RPE1 cells, B lymphocytes, and iPSC-differentiated motor neurons was performed by using a CHIP assay kit (Millipore Sigma, 17-295). In brief, protein complexes were crosslinked with 1% formaldehyde at 37° C. for 10 min and quenched with glycine at a final concentration of 125 mM at 37° C. for 5 min. […]

[2] = system: C9orf72 protein and V2 mRNA; experiment: Stress-induced C9orf72 expression in control and C9HRE iMNs (immunoblotting, RT-qPCR); type: cell-based, human; details: tunicamycin 5 μg/ml, 24 h
Method: as §3, §4, §5

DAXX = DAXX (Homo sapiens, UniProt Q9UER7 Q9UER7:1-740); experiment: EMSA; significantly preferential over random control; 50 nM probe, 10 mM Tris pH 7.5, 1 mM EDTA, 0.1 mM DTT, BSA, 5% glycerol, RT 30 min; details: tags: Flag-DAXX (Flag-Daxx/pRK5, Addgene 27974), anti-Flag M2 purified from HEK293 per Methods; label: 5' Alexa Fluor 488 on one strand
Method: Several assays were used to validate the interaction between DAXX and the G4C2 repeat dsDNA. […] Next, experiments were conducted to test whether DAXX protein and G4C2 repeat dsDNA interact directly. In these experiments, human DAXX protein (FIG. 8D) was purified and an electrophoresis mobility shift assay (EMSA) was performed using 5′ AlexaFluor 488-labeled (G4C2)₁₀ dsDNA or a length-matched random sequence control. […] In addition, experiments were performed to establish the association of endogenous DAXX with the expanded C9orf72 (G4C2)n DNA repeats in situ. In these experiments, DNA fluorescent in situ hybridization (FISH) was used to immunostain DAXX on multiple lines of ALS and/or FTD patient lymphocytes carrying C9orf72 HRE mutations. A co-localization between the DAXX immunostaining and FISH staining at the C9HRE locus was indicated by a well-demarcated punctum present only in the nuclei of patient cells and not in the control cells (FIG. 1A).

DAXX, sequence (Q9UER7 whole entry, one chain of several): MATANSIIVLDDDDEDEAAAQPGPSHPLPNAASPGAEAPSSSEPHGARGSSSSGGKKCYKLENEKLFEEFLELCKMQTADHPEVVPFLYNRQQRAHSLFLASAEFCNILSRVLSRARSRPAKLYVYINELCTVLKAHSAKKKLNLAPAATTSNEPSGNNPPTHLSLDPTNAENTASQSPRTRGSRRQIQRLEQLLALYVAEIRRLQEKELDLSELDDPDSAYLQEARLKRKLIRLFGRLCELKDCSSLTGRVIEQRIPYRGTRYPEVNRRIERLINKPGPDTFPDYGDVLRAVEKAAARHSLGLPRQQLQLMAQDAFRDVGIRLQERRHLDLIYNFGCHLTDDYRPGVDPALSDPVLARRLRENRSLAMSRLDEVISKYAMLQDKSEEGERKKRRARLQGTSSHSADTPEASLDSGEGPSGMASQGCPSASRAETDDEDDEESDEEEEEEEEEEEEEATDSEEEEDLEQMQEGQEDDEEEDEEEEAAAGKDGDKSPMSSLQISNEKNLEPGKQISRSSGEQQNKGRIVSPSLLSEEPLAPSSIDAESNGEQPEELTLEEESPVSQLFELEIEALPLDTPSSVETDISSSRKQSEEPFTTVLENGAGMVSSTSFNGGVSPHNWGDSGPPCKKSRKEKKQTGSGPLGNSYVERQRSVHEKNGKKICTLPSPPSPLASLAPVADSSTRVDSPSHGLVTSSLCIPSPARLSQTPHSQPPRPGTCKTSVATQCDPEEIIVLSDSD

**Q.** Which “levels of C9orf72 V2 transcripts” value (C9orf72 V2 transcripts; 5-aza-2 2 μM) does the source give for Nc1ncn([C@H]2C[C@H](O)[C@@H](CO)O2)c(=O)n1 [Compound 5-aza-2, 5-aza-2′-deoxycytidine] here?
**A.** Its value is “significantly upregulated”.

**Q.** And the “survival of C9HRE iMNs exposed to tunicamycin” value (C9HRE iMNs; TM 5 μg/ml with 5-aza-2 2 μM, vs DMSO, FIG. 7C, D)?
**A.** Its value is “significant increase”.

**Q.** For O=C([O-])CCCc1ccccc1.[Na+] [Na-Phen, sodium phenylbutyrate], which “levels of C9orf72 V2 transcripts” value (C9orf72 V2 transcripts; Na-Phen 10 μM) is on record?
**A.** The value was “significantly upregulated”.

**Q.** What about the “protection of C9HRE iMNs from tunicamycin-induced stress” value (C9HRE iMNs; TM 5 μg/ml with Na-Phen 10 μM, vs DMSO, FIG. 7C, D) of the same molecule?
**A.** The value was “robust protection”.

**Q.** What about the “survival in a mutant SOD1 mouse model of ALS” value [1] of the same molecule?
**A.** The value was “prolongs the survival”.

**Q.** Which “C9V2 mRNA, as measured by RT-qPCR” value (C9orf72 V2 transcripts) does the source give for C/C=C(/C)C(=O)O[C@H]1C(C)=C2[C@H]([C@@H]1OC(=O)CCCCCCC)[C@@](C)(OC(C)=O)C[C@H](OC(=O)CCC)[C@@]1(O)[C@H]2OC(=O)[C@@]1(C)O [thapsigargin] here?
**A.** Its value is “stress-dependent induction”.

**Q.** And the “C9V2 mRNA, as measured by RT-qPCR” value (C9V2 mRNA)?
**A.** The value was “stress-dependent induction”.

**Q.** What about the “dynamic regulation of C9orf72 expression” value (C9orf72 protein and mRNA) of the same molecule?
**A.** The value was “lost”.

**Q.** What about the “stress-responsive induction of C9orf72 expression at both the protein and mRNA levels” value (C9orf72 protein and mRNA) of the same molecule?
**A.** The value was “observed”.

**Q.** What about the “levels of the repressive marker H3K9me3 at the C9orf72 V2 promoter” value (C9orf72 V2 promoter; TG 30 nM) of the same molecule?
**A.** Its value is “decreased”.

**Q.** For tunicamycin, which “C9V2 mRNA, as measured by RT-qPCR” value (C9orf72 V2 transcripts) is on record?
**A.** The value was “stress-dependent induction”.

**Q.** What about the “tunicamycin-induced upregulation of C9orf72 expression” value ([2]; iMNs derived from C9HRE patients, FIG. 5A-C) of the same molecule?
**A.** Its value is “absent”.

**Q.** And the C9orf72 protein levels ([2]; iMNs from healthy individuals, vs DMSO, FIG. 5A-B)?
**A.** The C9orf72 protein levels was “significantly increased”.

**Q.** What about the “C9orf72 V2 mRNA levels” value ([2]; iMNs from healthy individuals, vs DMSO, FIG. 5C) of the same molecule?
**A.** Its value is “significantly increased”.

**Q.** What about the “C9V2 mRNA, as measured by RT-qPCR” value (C9V2 mRNA) of the same molecule?
**A.** The value was “stress-dependent induction”.

**Q.** What about the “dynamic regulation of C9orf72 expression” value (C9orf72 protein and mRNA) of the same molecule?
**A.** The value was “lost”.

**Q.** What about the “stress-responsive induction of C9orf72 expression at both the protein and mRNA levels” value (C9orf72 protein and mRNA) of the same molecule?
**A.** Its value is “observed”.

**Q.** What about the “loss of C9HRE iMNs” value (C9HRE iMNs; tunicamycin 5 μg/ml alone, FIG. 7A, B) of the same molecule?
**A.** Its value is “time-dependent loss”.

**Q.** What about the “levels of the active marker H3K27ac at the C9orf72 V2 promoter” value (C9orf72 V2 promoter; TM 5 μg/ml) of the same molecule?
**A.** The value was “elevated”.

B1: (G4C2)10 dsDNA (dsDNA)
DNA 1: GGGGCCGGGGCCGGGGCCGGGGCCGGGGCCGGGGCCGGGGCCGGGGCCGGGGCCGGGGCC
DNA 2: GGCCCCGGCCCCGGCCCCGGCCCCGGCCCCGGCCCCGGCCCCGGCCCCGGCCCCGGCCCC
**Q.** Does B1 bind (DAXX)?
**A.** Result: binds
